The target in one series is T1, P2X7 receptor (Homo sapiens, UniProt Q99572).
T1 construct: 200 μl of a suspension of THP-1 cells; endogenous in cells; host or cells: THP-1 cells
T1 sequence (Q99572 1-595): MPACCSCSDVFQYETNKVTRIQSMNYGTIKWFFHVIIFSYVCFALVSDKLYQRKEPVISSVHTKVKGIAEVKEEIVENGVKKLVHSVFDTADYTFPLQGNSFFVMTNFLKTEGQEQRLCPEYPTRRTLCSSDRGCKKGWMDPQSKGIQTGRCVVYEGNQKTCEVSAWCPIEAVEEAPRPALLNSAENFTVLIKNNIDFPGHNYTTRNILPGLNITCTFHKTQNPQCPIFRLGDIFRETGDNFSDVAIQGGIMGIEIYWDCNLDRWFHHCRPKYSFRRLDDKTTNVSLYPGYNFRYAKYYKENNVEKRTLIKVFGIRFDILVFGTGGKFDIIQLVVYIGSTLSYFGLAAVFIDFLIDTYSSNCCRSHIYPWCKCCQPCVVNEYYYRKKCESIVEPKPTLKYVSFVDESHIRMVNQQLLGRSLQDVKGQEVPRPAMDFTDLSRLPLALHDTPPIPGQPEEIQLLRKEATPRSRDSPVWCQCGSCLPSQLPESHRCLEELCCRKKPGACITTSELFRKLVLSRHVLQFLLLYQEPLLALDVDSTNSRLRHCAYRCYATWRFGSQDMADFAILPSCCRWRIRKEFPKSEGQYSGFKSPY
Kind of series: P2X7 assay (bbATP-induced ethidium bromide fluorescence in THP-1 cells). In kind it is cell-based. Particulars: 10^-5M bbATP agonist, read-out: P2X7 pIC50 (converted). An excerpt: Certain compounds such as benzoylbenzoyl adenosine triphosphate (bbATP) are known to be agonists of the P2X7 receptor, effecting the formation of pores in the plasma membrane (Drug Development Research (1996), 37(3), p. 126). Consequently, when the receptor is activated using bbATP in the presence of ethidium bromide (a fluorescent DNA probe), an increase in the fluorescence of intracellular DNA-bound ethidium bromide is observed. The increase in fluorescence can be used as a measure of P2X7 receptor activation and therefore to quantify the effect of a compound on the P2X7 receptor.
In this manner, each of the title compounds of the Examples was tested for antagonist activity at the P2X7 receptor. Thus, the test was performed in 96-well flat bottomed microtitre plates, the wells being filled with 250 μl of test solution comprising 200 μl of a suspension of THP-1 cells (2.5×10^6 cells/ml) containing 10^−4M ethidium bromide, 25 μl of a high potassium buffer solution containing 10^−5M bbATP, and 25 μl of the high potassium buffer solution containing concentrations of test compound typically from 30 μM-0.001 μM. The plate was covered with a plastics sheet and incubated at 37° C. for one hour. The plate was then read in a Perkin-Elmer fluorescent plate reader, excitation 520 nm, emission 595 nm, slit widths: Ex 15 nm, Em 20 nm. For the purposes of comparison, bbATP (a P2X7 receptor agonist) and pyridoxal 5-phosphate (a P2X7 receptor antagonist) were used separately in the test as controls. From the readings obtained, a pIC50 figure was calculated for each test compound, this figure being the negative logarithm of the concentration of test compound necessary to reduce the bbATP agonist activity by 50%.

Series [1] addresses T2, ion channel subunit encoded by the human ether-a-go-go-related gene (hERG) (Homo sapiens, UniProt Q12809).
T2 construct: expressed in transfected cells; host or cells: HEK (human embryonic kidney) cells, membrane preparation
The series is described as follows: hERG binding protocol (radioligand competition, HEK cell membranes expressing hERG). The conditions noted are these: for IC50: a 'less than' figure indicates <50% inhibition at the quoted concentration, the highest tested, read-out: hERG pIC50 (converted); for P2X7:hERG Ratio: ratio of P2X7:hERG affinity. Here is the method:
The hERG assay was performed according to the procedure described in WO2005/037052. The affinity (pIC50) of compounds for the ion channel subunit encoded by the human ether-a-go-go-related gene (hERG) gene was determined by competition binding of radioligand 3,7-Bis[2-(4-nitro[3,5-^3H]phenyl)ethyl]-3,7-diazabicyclo[3.3.1]nonane to HEK (human embryonic kidney) cell membranes expressing hERG, in a filter wash format.
Membranes were incubated for 3 hours at room temperature with serial dilutions of the test compounds, radioligand 3,7-Bis[2-(4-nitro[3,5-^3H]phenyl)ethyl]-3,7-diazabicyclo[3.3.1]nonane at 1 nM final concentration, and assay buffer (10 mM HEPES, 130 mM NaCl, 5 mM KCl, 1 mM EGTA, 0.8 mM MgCl2, pH 7.4). The assay was conducted in a final volume of 200 μL, in the presence of 1% (v/v) dimethyl sulphoxide. Non-specific binding was determined by measuring the binding of 3,7-Bis[2-(4-nitro[3,5-^3H]phenyl)ethyl]-3,7-diazabicyclo[3.3.1]nonane in the presence of 10 […]. During this incubation GF/B filter plates were immersed in coating solution 0.3% (v/v) Polyethylenimine and 0.2% (w/v) BSA). Following incubation assay plates were harvested onto precoated GF/B filter plates using a Tomtec harvester.
The pIC50, defined as the negative logarithm of the concentration of compound required for 50% reduction in 3,7-Bis[2-(4-nitro[3,5-^3H]phenyl)ethyl]-3,7-diazabicyclo[3.3.1]nonane binding, was determined. A ‘less than’ figure indicates <50% inhibition at the quoted concentration, this being the highest concentration tested.
For orientation: The hERG channel carries a current that helps repolarise heart muscle cells.

Another series has as its system primary rat hepatocytes. The series is described as follows: In vitro phospholipidosis protocol. It is filed as cell-based, Han Wistar rats. Here is the method: Assessment of a compounds potential to induce phospholipidosis was determined by an in vitro fluorescent assay which reports the accumulation of phospholipids in primary rat hepatocytes. Hepatocytes were isolated from Han Wistar rats by a 2-stage collagenase digest method. The hepatocytes were then plated on collagen coated 96-well plates in William's E medium. The cells were left to adhere for 1 hour then the media was replaced with a solution of 250 μg·ml^−1 collagen in Hepatozyme cell culture medium.
Cells were then cultured for 48 hours with the medium being changed at 24 hours. At 48 hours post isolation the medium was changed to Hepatozyme supplemented with the fluorescent phospholipid N-(6-tetramethylrhodaminethiocarbamoyl)-1,2-dihexadecanoyl-sn-glycero-3-phosphoethanolamine (DHPE-TRITC) (5 μg·ml^−1). At this time, test compounds were added to the hepatocytes at a range of concentrations in a serial dilution with a final concentration of 0.4% dimethylsulfoxide (used as solvent for test compounds). […]
Images of the hepatocytes were then acquired using an automated microscope platform (GE In Cell Analyser 3000). […] The quantified accumulation observed with test compounds was then normalised to a range of 0, representing the accumulation observed in cells exposed to vehicle only, and 1, representing cells exposed to 10 μM amiodarone. […]

A short description of the next series: Bioavailability - Rat PK. It is filed as in vivo, male Sprague Dawley rats. Particulars: male, Sprague Dawley, plasma, po 5 mg/kg vs iv 3 mg/kg. Here is the method:
Pharmacokinetic parameters and concepts are used in DMPK to describe the fate of a compound in the body. The distribution and excretion of a compound are reflected in the plasma concentration-time profile. By appropriate dosing, sampling and analysis key parameters (clearance, volume, half-life, bioavailability etc.) can be determined.
Test compounds were typically dosed intravenously to the right lateral tail vein of male Sprague Dawley rats at a dose level of 3 mg/kg (1 ml/kg) in DMA:water (40:60 v/v). Rats were dosed orally at a dose level of 5 mg/kg (2 ml/kg) in 0.5% hydroxypropylmethylcellulose (HPMC, w/v)/0.1% Tween 80 (v/v) in water). […]
To determine the plasma levels of test compound, 50 μl of methanol was added to 50 μl of each of the test samples, whilst 40 μl of methanol was added to the 50 μl aliquots of control plasma containing 10 μl spikes of authentic standard used to create a calibration line and QCs. […] The resultant supernatants were analysed by HPLC-MSMS after an appropriate, selective and sensitive method had been created by optimizing both cone voltage and collision energy.
Pharmacokinetic parameters were derived from concentration-time using non-compartmental analysis in WinNonLin®. Bioavailability was calculated using the following equation F=AUCPO*DoseIV/AUCIV*DosePO.

The structures appear in SMILES notation.

T2 sequence (Q12809 whole entry): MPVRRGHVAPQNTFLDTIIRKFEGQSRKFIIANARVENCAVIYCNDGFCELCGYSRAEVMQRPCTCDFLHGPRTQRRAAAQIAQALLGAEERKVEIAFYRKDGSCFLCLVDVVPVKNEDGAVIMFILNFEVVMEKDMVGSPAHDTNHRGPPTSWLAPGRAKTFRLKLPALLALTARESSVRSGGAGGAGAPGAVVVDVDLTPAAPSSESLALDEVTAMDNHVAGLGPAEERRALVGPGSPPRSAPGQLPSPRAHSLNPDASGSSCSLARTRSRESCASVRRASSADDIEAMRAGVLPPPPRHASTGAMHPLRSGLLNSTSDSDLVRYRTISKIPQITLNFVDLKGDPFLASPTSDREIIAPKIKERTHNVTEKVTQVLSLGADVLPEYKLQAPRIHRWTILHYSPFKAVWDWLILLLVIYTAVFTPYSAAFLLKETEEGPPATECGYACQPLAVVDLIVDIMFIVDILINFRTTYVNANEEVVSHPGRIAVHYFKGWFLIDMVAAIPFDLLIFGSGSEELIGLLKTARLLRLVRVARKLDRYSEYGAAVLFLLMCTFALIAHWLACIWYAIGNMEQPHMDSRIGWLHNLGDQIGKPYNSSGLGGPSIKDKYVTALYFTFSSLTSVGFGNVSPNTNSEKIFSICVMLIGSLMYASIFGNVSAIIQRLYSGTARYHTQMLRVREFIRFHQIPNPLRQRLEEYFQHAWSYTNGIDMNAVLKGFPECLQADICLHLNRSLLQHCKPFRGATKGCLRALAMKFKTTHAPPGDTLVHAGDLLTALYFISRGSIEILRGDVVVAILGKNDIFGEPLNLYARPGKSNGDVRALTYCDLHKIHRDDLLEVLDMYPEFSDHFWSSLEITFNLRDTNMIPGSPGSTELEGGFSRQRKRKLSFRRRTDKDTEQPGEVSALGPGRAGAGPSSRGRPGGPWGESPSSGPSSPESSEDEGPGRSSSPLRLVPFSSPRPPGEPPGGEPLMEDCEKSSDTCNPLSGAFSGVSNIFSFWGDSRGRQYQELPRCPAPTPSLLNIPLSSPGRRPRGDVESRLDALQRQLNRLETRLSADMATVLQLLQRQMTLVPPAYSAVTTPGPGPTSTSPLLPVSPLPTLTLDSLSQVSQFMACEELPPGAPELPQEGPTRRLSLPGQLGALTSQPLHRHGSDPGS

Consider `C[C@H]1CCC[C@@](O)(CNC(=O)c2c(Cl)ccc3nc(N4CCC(C)(O)C4)ccc23)C1` (single isomer, unassigned) [Example 4 - isomer 2], for which the IC50 at P2X7 receptor was 10 nM; in series [1] it was greater than 100000 nM. In addition, the “P2X7:hERG Ratio” value in series [1] is >10,000.

`C[C@H]1CCC[C@@](O)(CNC(=O)c2c(Cl)ccc3nc(N4CC[C@H](O)C4)ccc23)C1` [Example 1, 6-Chloro-N-{[(1S,3S)-1-hydroxy-3-methylcyclohexyl]methyl}-2-[(3S)-3-hydroxypyrrolidin-1-yl]quinoline-5-carboxamide] yielded a melting point of 222 °C. For the same compound, the IC50 on P2X7 receptor is 7.94 nM. In series [1], the IC50 is greater than 100000 nM and the “P2X7:hERG Ratio” value is on record as >10,000.

For the compound `C[C@H]1CCC[C@@](O)(CNC(=O)c2c(Cl)ccc3nc(N4CCC(O)CC4)ccc23)C1` [Example 3, 6-Chloro-N-{[(1S,3S)-1-hydroxy-3-methylcyclohexyl]methyl}-2-(4-hydroxypiperidin-1-yl)quinoline-5-carboxamide], the melting point is 120 °C (dec.). In addition, the IC50 at P2X7 receptor is 7.94 nM. Further, in series [1], the IC50 is greater than 100000 nM and the “P2X7:hERG Ratio” value is recorded as >10,000.

Turning to `C[C@H]1CCC[C@@](O)(CNC(=O)c2c(Cl)ccc3nc(N4CC[C@@H](O)C4)ccc23)C1` [Example 2, 6-Chloro-N-{[(1S,3S)-1-hydroxy-3-methylcyclohexyl]methyl}-2-[(3R)-3-hydroxypyrrolidin-1-yl]quinoline-5-carboxamide], the melting point is 222 to 223 °C. In the series with primary rat hepatocytes (lowest dose that caused >50% cell toxicity, primary rat hepatocytes), this compound registered a minimum toxic concentration greater than 250 µM. For the same compound, the “phospholipid (DHPE-TRITC) accumulation” value in the series on primary rat hepatocytes (maximum test concentration of 250 uM, normalised 0 = vehicle, 1 = 10 μM amiodarone) is “no measurable accumulation”. The compound also came in with a bioavailability in “Bioavailability - Rat PK” of 59%. On P2X7 receptor, the IC50 was 7.94 nM. For the same compound, in series [1], the IC50 was greater than 100000 nM and the “P2X7:hERG Ratio” value is >10,000.

Take `C[C@H]1CCC[C@@](O)(CNC(=O)c2c(Cl)ccc3nc(N4CCC(C)(O)C4)ccc23)C1` (stereo partly drawn) [Example 4, 6-Chloro-N-{[(1S,3S)-1-hydroxy-3-methylcyclohexyl]methyl}-2-(3-hydroxy-3-methylpyrrolidin-1-yl)quinoline-5-carboxamide]: the melting point is 195 to 200 °C (dec.).

What is called melting point is the temperature of the solid-liquid transition. By bioavailability is commonly meant dose-corrected exposure relative to a reference, in per cent. Read a low bioavailability as poor availability.
